Measurements published in the kinase profiling compilation of Christmann-Franck et al. (2016).

Tests used:
Assay in all cases: KINOMEscan competition binding
Conditions in all cases: compound 10.0 µM
ACVR2B (human) = ACVR2B (human) (UniProt Q13705)
ADCK3 (human) = ADCK3 (human) (UniProt Q8NI60)
CAMK2G (human) = CAMK2G (human) (UniProt Q13555)
CDC2L2 (human) = CDC2L2 (human) (UniProt Q9UQ88)
CDK3 (human) = CDK3 (human) (UniProt Q00526)
CDK9 (human) = CDK9 (human) (UniProt P50750)
CHEK2 (human) = CHEK2 (human) (UniProt O96017)
CIT (human) = CIT (human) (UniProt O14578)
CSNK1G1 (human) = CSNK1G1 (human) (UniProt Q9HCP0)
CSNK1G3 (human) = CSNK1G3 (human) (UniProt Q9Y6M4)
DAPK1 (human) = DAPK1 (human) (UniProt P53355)
EPHA4 (human) = EPHA4 (human) (UniProt P54764)
EPHA5 (human) = EPHA5 (human) (UniProt P54756)
FRK (human) = FRK (human) (UniProt P42685)
[1] = target: JAK1 JH1 catalytic (human) (UniProt P23458)
LATS2 (human) = LATS2 (human) (UniProt Q9NRM7)
Chain of LATS2 (human) (Q9NRM7 whole entry, looked up): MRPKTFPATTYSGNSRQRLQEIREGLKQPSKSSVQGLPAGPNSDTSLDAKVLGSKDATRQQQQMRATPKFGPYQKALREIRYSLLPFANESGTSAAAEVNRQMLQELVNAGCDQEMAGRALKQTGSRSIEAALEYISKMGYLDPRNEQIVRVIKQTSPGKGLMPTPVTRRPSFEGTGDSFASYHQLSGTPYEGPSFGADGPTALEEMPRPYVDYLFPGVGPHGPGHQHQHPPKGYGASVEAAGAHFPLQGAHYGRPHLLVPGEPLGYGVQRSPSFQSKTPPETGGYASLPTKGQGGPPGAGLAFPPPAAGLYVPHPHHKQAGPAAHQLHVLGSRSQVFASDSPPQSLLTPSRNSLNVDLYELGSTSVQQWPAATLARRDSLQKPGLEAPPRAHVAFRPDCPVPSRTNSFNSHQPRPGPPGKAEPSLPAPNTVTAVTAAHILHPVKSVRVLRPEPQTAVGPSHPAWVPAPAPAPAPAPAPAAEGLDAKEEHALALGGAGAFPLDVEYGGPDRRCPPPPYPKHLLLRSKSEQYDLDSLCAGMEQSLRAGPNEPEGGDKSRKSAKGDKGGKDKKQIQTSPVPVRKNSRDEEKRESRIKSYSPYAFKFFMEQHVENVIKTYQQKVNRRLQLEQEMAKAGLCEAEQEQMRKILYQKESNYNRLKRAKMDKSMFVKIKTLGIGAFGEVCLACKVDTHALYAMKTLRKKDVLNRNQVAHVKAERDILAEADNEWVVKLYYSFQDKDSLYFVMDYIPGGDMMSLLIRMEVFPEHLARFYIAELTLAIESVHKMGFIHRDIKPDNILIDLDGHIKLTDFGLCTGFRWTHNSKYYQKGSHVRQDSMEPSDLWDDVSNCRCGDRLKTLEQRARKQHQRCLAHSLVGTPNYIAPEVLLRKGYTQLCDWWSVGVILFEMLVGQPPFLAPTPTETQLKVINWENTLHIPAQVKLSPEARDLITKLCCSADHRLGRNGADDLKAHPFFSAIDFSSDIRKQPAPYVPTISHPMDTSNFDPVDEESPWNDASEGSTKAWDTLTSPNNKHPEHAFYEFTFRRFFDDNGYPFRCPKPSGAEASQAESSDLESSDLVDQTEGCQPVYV

LTK (human) = LTK (human) (UniProt P29376)
MAP3K11 (human) = MAP3K11 (human) (UniProt Q16584)
MAP3K5 (human) = MAP3K5 (human) (UniProt Q99683)
MAP4K4 (human) = MAP4K4 (human) (UniProt O95819)
Chain of MAP4K4 (human) (O95819 whole entry, looked up): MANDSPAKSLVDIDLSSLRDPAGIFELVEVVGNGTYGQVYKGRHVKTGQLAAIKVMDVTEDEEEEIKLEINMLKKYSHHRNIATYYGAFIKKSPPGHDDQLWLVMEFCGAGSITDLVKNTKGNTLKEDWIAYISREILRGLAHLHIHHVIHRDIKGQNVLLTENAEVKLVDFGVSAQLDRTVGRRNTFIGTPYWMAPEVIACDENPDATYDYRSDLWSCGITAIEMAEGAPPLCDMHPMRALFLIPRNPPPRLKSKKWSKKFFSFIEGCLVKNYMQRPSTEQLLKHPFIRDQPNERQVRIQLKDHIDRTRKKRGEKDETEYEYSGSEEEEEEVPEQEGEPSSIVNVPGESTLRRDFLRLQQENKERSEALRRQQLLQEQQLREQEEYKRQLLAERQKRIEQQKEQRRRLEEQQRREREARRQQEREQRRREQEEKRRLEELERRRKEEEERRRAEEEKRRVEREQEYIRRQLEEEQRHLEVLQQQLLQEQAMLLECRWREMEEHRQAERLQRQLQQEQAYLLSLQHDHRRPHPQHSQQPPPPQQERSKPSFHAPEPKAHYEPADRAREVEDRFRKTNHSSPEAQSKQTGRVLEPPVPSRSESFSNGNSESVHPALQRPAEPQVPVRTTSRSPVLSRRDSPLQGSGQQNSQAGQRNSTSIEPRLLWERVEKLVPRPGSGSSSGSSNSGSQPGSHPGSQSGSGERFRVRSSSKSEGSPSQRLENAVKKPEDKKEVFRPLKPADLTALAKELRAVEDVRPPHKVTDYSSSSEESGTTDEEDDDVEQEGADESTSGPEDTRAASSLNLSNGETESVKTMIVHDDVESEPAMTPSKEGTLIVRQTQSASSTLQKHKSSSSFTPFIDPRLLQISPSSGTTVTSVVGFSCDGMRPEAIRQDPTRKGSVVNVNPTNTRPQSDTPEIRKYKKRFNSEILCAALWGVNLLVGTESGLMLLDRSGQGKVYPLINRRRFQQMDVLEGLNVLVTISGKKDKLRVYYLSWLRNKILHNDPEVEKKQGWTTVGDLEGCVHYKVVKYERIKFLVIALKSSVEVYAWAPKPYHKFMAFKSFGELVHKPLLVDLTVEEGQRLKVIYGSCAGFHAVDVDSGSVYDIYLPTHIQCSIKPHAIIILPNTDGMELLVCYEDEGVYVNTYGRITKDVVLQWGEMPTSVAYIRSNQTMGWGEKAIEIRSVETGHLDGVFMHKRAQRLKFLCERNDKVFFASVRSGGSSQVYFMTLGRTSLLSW

MAPK1 (human) = MAPK1 (human) (UniProt P28482)
MAPK4 (human) = MAPK4 (human) (UniProt P31152)
MAPK9 (human) = MAPK9 (human) (UniProt P45984)
MINK1 (human) = MINK1 (human) (UniProt Q8N4C8)
PAK1 (human) = PAK1 (human) (UniProt Q13153)
PAK6 (human) = PAK6 (human) (UniProt Q9NQU5)
PRKD1 (human) = PRKD1 (human) (UniProt Q15139)
PTK2B (human) = PTK2B (human) (UniProt Q14289)
RIOK1 (human) = RIOK1 (human) (UniProt Q9BRS2)
RIOK3 (human) = RIOK3 (human) (UniProt O14730)
RIPK4 (human) = RIPK4 (human) (UniProt P57078)
Chain of RIPK4 (human) (P57078 whole entry, looked up): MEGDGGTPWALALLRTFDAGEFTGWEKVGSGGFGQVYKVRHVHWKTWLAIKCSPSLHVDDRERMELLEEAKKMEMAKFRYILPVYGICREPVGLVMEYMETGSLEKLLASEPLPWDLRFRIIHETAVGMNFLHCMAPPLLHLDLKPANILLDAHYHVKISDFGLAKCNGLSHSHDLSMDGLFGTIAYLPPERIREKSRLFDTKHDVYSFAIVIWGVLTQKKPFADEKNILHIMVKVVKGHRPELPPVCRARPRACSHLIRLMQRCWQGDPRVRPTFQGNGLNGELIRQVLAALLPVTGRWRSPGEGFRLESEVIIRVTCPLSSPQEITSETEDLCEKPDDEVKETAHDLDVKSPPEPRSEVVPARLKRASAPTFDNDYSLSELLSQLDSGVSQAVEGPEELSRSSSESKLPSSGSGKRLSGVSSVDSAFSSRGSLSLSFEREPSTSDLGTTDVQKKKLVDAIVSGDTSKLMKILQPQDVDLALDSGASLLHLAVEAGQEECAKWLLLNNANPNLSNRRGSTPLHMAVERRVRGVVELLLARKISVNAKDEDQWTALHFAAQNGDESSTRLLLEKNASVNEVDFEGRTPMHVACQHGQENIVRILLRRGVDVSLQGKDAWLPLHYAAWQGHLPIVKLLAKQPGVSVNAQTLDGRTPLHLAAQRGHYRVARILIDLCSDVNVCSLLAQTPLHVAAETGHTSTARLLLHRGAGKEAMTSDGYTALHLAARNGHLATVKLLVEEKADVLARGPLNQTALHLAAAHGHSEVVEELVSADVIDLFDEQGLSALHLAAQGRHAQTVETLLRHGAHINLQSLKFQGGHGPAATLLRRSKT

RPS6KA3 KD1 (human) = RPS6KA3 KD1 (human) (UniProt P51812)
Chain of RPS6KA3 KD1 (human) (P51812 whole entry, looked up): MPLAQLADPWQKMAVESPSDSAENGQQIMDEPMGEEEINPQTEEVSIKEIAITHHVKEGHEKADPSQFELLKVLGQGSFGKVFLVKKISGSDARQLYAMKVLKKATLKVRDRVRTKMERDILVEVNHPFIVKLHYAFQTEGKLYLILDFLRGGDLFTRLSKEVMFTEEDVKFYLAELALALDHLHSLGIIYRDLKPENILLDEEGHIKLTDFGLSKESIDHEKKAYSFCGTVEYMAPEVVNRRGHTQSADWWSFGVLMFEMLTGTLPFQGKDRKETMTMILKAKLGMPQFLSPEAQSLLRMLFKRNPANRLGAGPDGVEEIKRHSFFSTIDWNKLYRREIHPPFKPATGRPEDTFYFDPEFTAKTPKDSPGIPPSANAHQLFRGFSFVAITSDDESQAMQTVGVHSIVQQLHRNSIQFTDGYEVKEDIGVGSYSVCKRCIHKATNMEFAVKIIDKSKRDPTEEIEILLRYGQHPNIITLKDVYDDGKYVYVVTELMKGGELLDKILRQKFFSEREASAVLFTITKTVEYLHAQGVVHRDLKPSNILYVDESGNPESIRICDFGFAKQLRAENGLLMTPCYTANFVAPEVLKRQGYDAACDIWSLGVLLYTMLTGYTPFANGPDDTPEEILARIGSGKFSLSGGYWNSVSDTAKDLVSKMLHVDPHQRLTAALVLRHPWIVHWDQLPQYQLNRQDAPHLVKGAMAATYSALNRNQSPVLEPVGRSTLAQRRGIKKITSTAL

RPS6KA6 KD2 (human) = RPS6KA6 KD2 (human) (UniProt Q9UK32)
Chain of RPS6KA6 KD2 (human) (Q9UK32 whole entry, looked up): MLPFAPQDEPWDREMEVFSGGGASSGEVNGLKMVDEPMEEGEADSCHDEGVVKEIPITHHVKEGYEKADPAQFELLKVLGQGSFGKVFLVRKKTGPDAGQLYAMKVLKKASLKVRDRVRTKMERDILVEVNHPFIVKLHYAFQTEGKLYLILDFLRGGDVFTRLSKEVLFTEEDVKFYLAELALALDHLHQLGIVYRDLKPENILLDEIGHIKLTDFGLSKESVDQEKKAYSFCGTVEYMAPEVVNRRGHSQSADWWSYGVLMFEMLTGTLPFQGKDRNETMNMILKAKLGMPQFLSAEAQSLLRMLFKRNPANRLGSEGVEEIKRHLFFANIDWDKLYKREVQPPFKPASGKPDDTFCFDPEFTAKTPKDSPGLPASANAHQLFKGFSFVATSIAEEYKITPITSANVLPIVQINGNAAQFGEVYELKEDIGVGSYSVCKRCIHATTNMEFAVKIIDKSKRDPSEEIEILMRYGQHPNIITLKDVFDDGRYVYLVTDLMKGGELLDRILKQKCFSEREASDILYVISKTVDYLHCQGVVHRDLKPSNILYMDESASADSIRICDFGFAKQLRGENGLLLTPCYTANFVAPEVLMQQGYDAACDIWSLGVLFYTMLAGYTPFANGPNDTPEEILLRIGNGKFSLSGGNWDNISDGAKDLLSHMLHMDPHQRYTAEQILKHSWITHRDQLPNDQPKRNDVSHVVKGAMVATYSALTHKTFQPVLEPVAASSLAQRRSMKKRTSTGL

STK10 (human) = STK10 (human) (UniProt O94804)
STK25 (human) = STK25 (human) (UniProt O00506)
STK32B (human) = STK32B (human) (UniProt Q9NY57)
TGFBR2 (human) = TGFBR2 (human) (UniProt P37173)
TNK1 (human) = TNK1 (human) (UniProt Q13470)
TXK (human) = TXK (human) (UniProt P42681)
DAPK2 (human) = DAPK2 (human) (UniProt Q9UIK4)

Chain of CDK3 (human) (Q00526 whole entry, looked up): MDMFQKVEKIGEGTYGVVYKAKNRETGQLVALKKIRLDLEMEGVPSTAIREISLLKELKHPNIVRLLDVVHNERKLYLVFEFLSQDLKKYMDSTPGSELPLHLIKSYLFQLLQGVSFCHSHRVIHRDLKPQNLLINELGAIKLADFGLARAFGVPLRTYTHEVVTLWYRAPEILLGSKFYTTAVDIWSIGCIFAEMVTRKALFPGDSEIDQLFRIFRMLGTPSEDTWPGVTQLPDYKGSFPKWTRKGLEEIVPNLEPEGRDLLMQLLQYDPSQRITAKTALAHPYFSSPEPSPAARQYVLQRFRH

Row | Structure (SMILES) | kinase still bound, per cent of control (ACVR2B (human)) | kinase still bound, per cent of control (ADCK3 (human)) | kinase still bound, per cent of control (CAMK2G (human)) | kinase still bound, per cent of control (CDK3 (human)) | kinase still bound, per cent of control (CHEK2 (human)) | kinase still bound, per cent of control (CIT (human)) | kinase still bound, per cent of control (CSNK1G1 (human)) | kinase still bound, per cent of control (CSNK1G3 (human)) | kinase still bound, per cent of control (DAPK1 (human)) | kinase still bound, per cent of control (EPHA4 (human)) | kinase still bound, per cent of control (EPHA5 (human)) | kinase still bound, per cent of control (FRK (human)) | kinase still bound, per cent of control [1] | kinase still bound, per cent of control (LATS2 (human)) | kinase still bound, per cent of control (LTK (human)) | kinase still bound, per cent of control (MAP3K11 (human)) | kinase still bound, per cent of control (MAP3K5 (human)) | kinase still bound, per cent of control (MAP4K4 (human)) | kinase still bound, per cent of control (MAPK1 (human)) | kinase still bound, per cent of control (MAPK4 (human)) | further results
1 | CCC(=O)N1CCN(c2ccc(-n3c(=O)ccc4cnc5ccc(-c6cnc7ccccc7c6)cc5c43)cc2C(F)(F)F)CC1 | 42% | 17% | 79% | 100% | 100% | 59% | 100% | 100% | 96% | 90% | 100% | 60% | 82% | 100% | 77% | 69% | 100% | 5.2% | 100% | 80% | kinase still bound, per cent of control (CDC2L2 (human)): 100%; kinase still bound, per cent of control (CDK9 (human)): 94%; kinase still bound, per cent of control (MAPK9 (human)): 40%; kinase still bound, per cent of control (MINK1 (human)): 19%; kinase still bound, per cent of control (PAK1 (human)): 73%; kinase still bound, per cent of control (PAK6 (human)): 77%; kinase still bound, per cent of control (PRKD1 (human)): 99%; kinase still bound, per cent of control (PTK2B (human)): 100%; kinase still bound, per cent of control (RIOK1 (human)): 81%; kinase still bound, per cent of control (RIOK3 (human)): 90%; kinase still bound, per cent of control (RIPK4 (human)): 100%; kinase still bound, per cent of control (RPS6KA3 KD1 (human)): 38%; kinase still bound, per cent of control (RPS6KA6 KD2 (human)): 86%; kinase still bound, per cent of control (STK10 (human)): 79%; kinase still bound, per cent of control (STK25 (human)): 84%; kinase still bound, per cent of control (STK32B (human)): 87%; kinase still bound, per cent of control (TGFBR2 (human)): 77%; kinase still bound, per cent of control (TNK1 (human)): 6.8%; kinase still bound, per cent of control (TXK (human)): 54%
2 | COc1cc(N2CCN(C)CC2)ccc1Nc1nc(N)c(C(=O)c2c(Cl)cccc2Cl)s1 | 92% | 93% | 17% | 97% | 100% | 94% | 100% | 79% | 85% | 90% | 100% | 43% | 100% | 100% | 4.2% | 96% | 100% | 76% | 100% | 90% | kinase still bound, per cent of control (DAPK2 (human)): 86%; kinase still bound, per cent of control (MAPK9 (human)): 100%; kinase still bound, per cent of control (MINK1 (human)): 61%; kinase still bound, per cent of control (PAK1 (human)): 91%; kinase still bound, per cent of control (PAK6 (human)): 55%; kinase still bound, per cent of control (PRKD1 (human)): 44%; kinase still bound, per cent of control (PTK2B (human)): 42%; kinase still bound, per cent of control (RIOK1 (human)): 100%; kinase still bound, per cent of control (RIOK3 (human)): 100%; kinase still bound, per cent of control (RIPK4 (human)): 96%; kinase still bound, per cent of control (RPS6KA3 KD1 (human)): 66%; kinase still bound, per cent of control (RPS6KA6 KD2 (human)): 28%; kinase still bound, per cent of control (STK10 (human)): 40%; kinase still bound, per cent of control (STK25 (human)): 66%; kinase still bound, per cent of control (STK32B (human)): 76%; kinase still bound, per cent of control (TGFBR2 (human)): 92%; kinase still bound, per cent of control (TNK1 (human)): 100%; kinase still bound, per cent of control (TXK (human)): 100%
3 | O=C(NOC[C@H](O)CO)c1ccc(F)c(F)c1Nc1ccc(I)cc1F | 66% | 86% | 100% | 69% | 86% | 100% | 61% | 67% | 100% | 100% | 96% | 60% | 78% | 74% | 100% | 100% | 91% | 69% | 100% | 77% | kinase still bound, per cent of control (CDC2L2 (human)): 100%; kinase still bound, per cent of control (CDK9 (human)): 76%; kinase still bound, per cent of control (DAPK2 (human)): 100%; kinase still bound, per cent of control (MAPK9 (human)): 88%; kinase still bound, per cent of control (MINK1 (human)): 94%; kinase still bound, per cent of control (PAK1 (human)): 100%; kinase still bound, per cent of control (PAK6 (human)): 94%; kinase still bound, per cent of control (PRKD1 (human)): 100%; kinase still bound, per cent of control (PTK2B (human)): 98%; kinase still bound, per cent of control (RIOK1 (human)): 95%; kinase still bound, per cent of control (RIOK3 (human)): 100%; kinase still bound, per cent of control (RIPK4 (human)): 100%; kinase still bound, per cent of control (RPS6KA3 KD1 (human)): 100%; kinase still bound, per cent of control (RPS6KA6 KD2 (human)): 80%; kinase still bound, per cent of control (STK25 (human)): 91%; kinase still bound, per cent of control (TGFBR2 (human)): 100%; kinase still bound, per cent of control (TNK1 (human)): 68%; kinase still bound, per cent of control (TXK (human)): 100%
